From patent US6440999B1, “Intimal thickening inhibitory agent” (Chugai Seiyaku Kabushiki Kaisha, priority 1995, dated 2002)

Assays:
[1] = system: A7r5 cells derived from the aorta of a rat; experiment: Inhibition of serum-stimulated proliferation of vascular smooth muscle cells, acid phosphatase activity; format: cell-based; details: 48 hours after 2% FBS stimulation, n = 3, mean ± SD; for Acid Phosphatase Activity Absorbance (OD405): control 0.867 ± 0.089; for activity at 10 µM / activity at 100 µM / activity at 30 µM: Rattus norvegicus, A7R5, control 100 ± 10
Procedure: In order to assess the inhibitory effect of the compounds of the present invention on serum-stimulated proliferation of vascular smooth muscle cells in vitro, the compounds of Examples 1, 4, 20, 22, 27, 31, 36, 50, 52, and 58 were tested using A7r5 cells derived from the aorta of a rat (ATCC-CRL-1444).
Using DMEM medium containing 10% FBS, the cells were placed on 96-well microtiter plates with 5×10^3 cells/0.2 ml/ well and then incubated. The medium was exchanged for 2% FBS-containing DMEM medium on the third day and then for 0.2% FBS-containing DMEM medium on the fourth day from the start of the incubation. After 24-hour incubation in the 0.2% FBS-containing DMEM medium, the test compound was added. Each of the test compounds were added to the wells in the form of a solution or suspension in ethanol in an amount of 1 μl/well to final compound concentrations indicated in Table 3 below and the resultant ethanol concentration of 0.5% in each well. After additional 24-hour incubation, the medium was removed, and 0.2 ml of DMEM medium and the test compound were added thereto again, and the cells were stimulated by serum (2% FBS). Forty-eight hours after the stimulation, the acid phosphatase activity in the wells was measured by means of a kit (Abacus Cell Proliferation Kit, available from Clontech Lab. Inc. CA, U.S.A.) and evaluated as an indication of cell proliferation.

[2] = system: rabbit balloon injury models; experiment: In vivo effect in intimal thickening model (2), rabbit balloon injury; details: cholesterol-fed rabbits, 15-week-old, 200 mg/kg oral once a day, four weeks after balloon treatment, mean ± SD
Procedure: In order to assess the inhibitory effect of the compound of the present invention on intimal thickening in vivo, the compound of Example 36 was tested using rabbit balloon injury models that were different from those used in Test Example 4 in week-age. Further, the effect was compared with that of Probucol which was reported to have an inhibitory effect on intimal thickening in balloon injury models (see Proc. Natl. Acad. Sci., U.S.A., 89, pp 11312-11316 (1992)).
Cholesterol-fed rabbits in groups of seven (JW: CSK male, 15-week-old) were used to prepare rabbit balloon injury models. Briefly, rabbits were fed with a high cholesterol diet (cholesterol content: 1%) for 2 weeks before balloon treatment. The animals were balloon-treated with a balloon catheter (4 French, available from Baxter) under anesthesia to peel the aortic intima 5 times. The animals were orally administered with the compound which was suspended in a 1% CMC solution (200 mg/kg). On the other hand, control animals were orally administered with a 1% CMC solution without the compound. The administrations were performed once a day from 1 week before the balloon treatment until the day before the dissection for evaluation. In order to evaluate the degree of balloon injury, a balloon-nontreated group (3 animals) was prepared.
After four weeks from the balloon treatment, specimens were taken from the aorta, stained with Elastica van Geison, and analyzed under an optical microscope. The image was processed to measure the thickness and area of the thickened intima. Averages of the thickness and area were obtained for each individual animal. The animals which died after the operation and those having a serum cholesterol level of 3500 mg/dl or higher were excluded from the measurement. The number of animals used for the evaluation was 4 or 5 per group.

[3] = system: A7r5 cells derived from the aorta of a rat; experiment: Inhibition of serum- or PDGF-stimulated proliferation of vascular smooth muscle cells, [3H]-thymidine uptake; format: cell-based; details: uptake in 5 hours, n = 3, mean ± SD; for Count by Liquid Scintillation Counter, FBS Stimulation ([3H]-thymidine uptake): 2% FBS, control 42789 ± 1063; for Count by Liquid Scintillation Counter, PDGF Stimulation ([3H]-thymidine uptake): PDGF-BB 4 ng/ml, control 24517 ± 2370
Procedure: In order to assess the inhibitory effect of a compound of the present invention on serum- or PDGF-stimulated proliferation of vascular smooth muscle cells in vitro, the compound obtained in Example 36 was tested using A7r5 cells derived from the aorta of a rat (ATCC-CRL-1444). Further, the effect was compared with that of α-tocopherol which was reported to have an inhibitory effect on proliferation of vascular smooth muscle cells (see J. Biol. Chem., 266, pp. 6188-6194 (1991)).
Using DMEM medium containing 10% FBS, the cells were placed on 96-well microtiter plates with 5×10^3 cells/0.2 ml/well and then incubated. The medium was exchanged for 2% FBS-containing DMEM medium on the third day and then for 0.2% FBS-containing DMEM medium on the fourth day from the start of the incubation. After 48-hour incubation in the 0.2% FBS-containing DMEM medium, the medium was removed, 0.2 ml of DMEM medium and the test compound were added, and the cells were stimulated with serum (2% FBS) or PDGF (PDGF-BB: human origin, available from Becton Dickinson Labware) (4 ng/ml) to proliferate. The test compound was added to the wells in the form of a solution or suspension in ethanol in amount of 1 μl well to final compound concentrations indicated in Table 2 below and the resultant ethanol concentration of 0.5% in each well. Eight hours after the stimulation, hydroxyurea was added to a final concentration of 1.5 mM to synchronize the cell cycle strictly. After additional 14-hour incubation, the medium containing hydroxyurea was removed and the cells were washed, and DMEM medium, the test compound and the proliferation stimulator were added thereto again. Further, [^3H]-thymidine (1 μCi/well; […]; available from NEN Research) was added. The [^3H]-thymidine uptake in 5 hours was measured as an indication of cell proliferation.

Structure (SMILES) | Acid Phosphatase Activity Absorbance (OD405) ([1]; 10 μM) | activity at 10 µM ([1]; 10 μM) [%] | Acid Phosphatase Activity Absorbance (OD405) ([1]; 30 μM) | activity at 30 µM ([1]; 30 μM) [%] | further results
CCCOc1cc(C(C)(C)C)c(O)c(C(C)(C)C)c1C [Example 31, 2,6-Di-t-butyl-3-methyl-4-propyloxyphenol] | 0.756 ± 0.025 | 87 ± 3 |  |  | Acid Phosphatase Activity Absorbance (OD405) ([1]; 100 μM): 0.600 ± 0.102; activity at 100 µM ([1]; 100 μM): 69 ± 12%
CCCCCC1(CCCCC)Cc2c(cc(C(C)(C)C)c(O)c2C(C)(C)C)S1 [Example 50, 4,6-Di-t-butyl-5-hydroxy-2,2-di-n-pentyl-2,3-dihydrobenzothiophene] | 0.699 ± 0.131 | 81 ± 15 | 0.146 ± 0.026 | 17 ± 3 | 
CC1(CO)Cc2c(cc(C(C)(C)C)c(O)c2C(C)(C)C)O1 (stereo not shown) [Example 48, 4,6-Di-t-butyl-5-hydroxy-2-hydroxymethyl-2-methyl-2,3-dihydrobenzofuran] |  |  |  |  | melting point: 126 to 128 °C
CC(C)(Sc1cc(C(C)(C)C)c(O)c(C(C)(C)C)c1)Sc1cc(C(C)(C)C)c(O)c(C(C)(C)C)c1 [Probucol, reference compound] |  |  |  |  | Area of Intima ([2]; control 1.32 ± 0.22): 0.97 ± 0.28 mm²; Thickness of Intima ([2]; control 119 ± 19): 92 ± 17 μm
CC(C)(C)c1cc2occc2c(C(C)(C)C)c1O [Example 27, 4,6-Di-t-butyl-5-hydroxybenzofuran] | 0.553 ± 0.033 | 64 ± 4 | 0.225 ± 0.064 | 26 ± 7 | 
CC1(C)Cc2c(cc(C(C)(C)C)c(O)c2C(C)(C)C)S1 [Example 52, 4,6-Di-t-butyl-5-hydroxy-2,2-dimethyl-2,3-dihydrobenzothiophene] | 0.690 ± 0.071 | 80 ± 8 | 0.043 ± 0.008 | 5 ± 1 | 
Cc1c(C)c2c(c(C)c1O)CC[C@@](C)(CCC[C@H](C)CCC[C@H](C)CCCC(C)C)O2 [α-Tocopherol, α-tocopherol, reference compound] |  |  |  |  | Count by Liquid Scintillation Counter, FBS Stimulation ([3H]-thymidine uptake) ([3]; 30 μM): 28058 ± 3912 CPM; Count by Liquid Scintillation Counter, PDGF Stimulation ([3H]-thymidine uptake) ([3]; 30 μM): 12493 ± 2978 CPM; Count by Liquid Scintillation Counter, FBS Stimulation ([3H]-thymidine uptake) ([3]; 100 μM): 25706 ± 4160 CPM; Count by Liquid Scintillation Counter, PDGF Stimulation ([3H]-thymidine uptake) ([3]; 100 μM): 12159 ± 2362 CPM
CC(C)(C)c1cc2c(c(C(C)(C)C)c1O)CC1(CCOCC1)O2 [Example 22, 4,6-Di-t-butyl-5-hydroxy-2,3-dihydrobenzofuran-2-spiro-4′-tetrahydropyran] | 0.875 ± 0.013 | 101 ± 1 |  |  | Acid Phosphatase Activity Absorbance (OD405) ([1]; 100 μM): 0.777 ± 0.062; activity at 100 µM ([1]; 100 μM): 90 ± 7%
CC1(C)Cc2c(cc(C(C)(C)C)c(O)c2C(C)(C)C)O1 [Example 4, 4,6-Di-t-butyl-5-hydroxy-2,2-dimethyl-2,3-dihydrobenzofuran] | 0.606 ± 0.020 | 70 ± 2 | 0.062 ± 0.026 | 7 ± 3 | 
CC(C)(C)c1cc2c(c(C(C)(C)C)c1O)CCO2 [Example 1, 4,6-Di-t-butyl-5-hydroxy-2,3-dihydrobenzofuran] | 0.727 ± 0.032 | 84 ± 4 |  |  | Acid Phosphatase Activity Absorbance (OD405) ([1]; 100 μM): 0.288 ± 0.073; activity at 100 µM ([1]; 100 μM): 33 ± 8%
CC(C)(C)c1cc2c(c(C(C)(C)C)c1O)CC1(CCCCC1)S2 [Example 58, 4,6-Di-t-butyl-5-hydroxy-2,3-dihydrobenzothiophene-2-spiro-1′-cyclohexane] | 0.417 ± 0.125 | 48 ± 14 | 0.045 ± 0.006 | 5 ± 1 | 
CC(C)(C)c1cc2c(c(C(C)(C)C)c1O)CC1(CCCCCC1)O2 [Example 20, 4,6-Di-t-butyl-5-hydroxy-2,3-dihydrobenzofuran-2-spiro-1′-cycloheptane] | 0.472 ± 0.031 | 54 ± 4 | 0.105 ± 0.027 | 12 ± 3 | 
